One experiment concerns the target Beta-secretase 1 (Homo sapiens, UniProt P56817). Nature of the experiment: Inhibition of BACE1 (unknown origin) using Rh-EVNNLDAEFK fluorogenic peptide as substrate incubated for 3 hrs by FRET assay.
Experiment [1] deals with Amyloid-beta precursor protein (Homo sapiens, UniProt P05067). Description: Inhibition of self-induced aggregation amyloid beta (1 to 40) (unknown origin) incubated for 24 hrs by Thioflavin T based fluorometric assay.

Here are results for 7 compounds from ChEMBL document CHEMBL4837233, “Inhibition of BACE1 and Amyloid-β Aggregation by Meroterpenoids from the Mushroom Albatrellus yasudae” (J Nat Prod, 2021).

The structures appear in SMILES notation. Some results are limits rather than exact numbers.

The term IC50 denotes the concentration that inhibits the measured activity by half.

Sequence of Amyloid-beta precursor protein (P05067 whole entry): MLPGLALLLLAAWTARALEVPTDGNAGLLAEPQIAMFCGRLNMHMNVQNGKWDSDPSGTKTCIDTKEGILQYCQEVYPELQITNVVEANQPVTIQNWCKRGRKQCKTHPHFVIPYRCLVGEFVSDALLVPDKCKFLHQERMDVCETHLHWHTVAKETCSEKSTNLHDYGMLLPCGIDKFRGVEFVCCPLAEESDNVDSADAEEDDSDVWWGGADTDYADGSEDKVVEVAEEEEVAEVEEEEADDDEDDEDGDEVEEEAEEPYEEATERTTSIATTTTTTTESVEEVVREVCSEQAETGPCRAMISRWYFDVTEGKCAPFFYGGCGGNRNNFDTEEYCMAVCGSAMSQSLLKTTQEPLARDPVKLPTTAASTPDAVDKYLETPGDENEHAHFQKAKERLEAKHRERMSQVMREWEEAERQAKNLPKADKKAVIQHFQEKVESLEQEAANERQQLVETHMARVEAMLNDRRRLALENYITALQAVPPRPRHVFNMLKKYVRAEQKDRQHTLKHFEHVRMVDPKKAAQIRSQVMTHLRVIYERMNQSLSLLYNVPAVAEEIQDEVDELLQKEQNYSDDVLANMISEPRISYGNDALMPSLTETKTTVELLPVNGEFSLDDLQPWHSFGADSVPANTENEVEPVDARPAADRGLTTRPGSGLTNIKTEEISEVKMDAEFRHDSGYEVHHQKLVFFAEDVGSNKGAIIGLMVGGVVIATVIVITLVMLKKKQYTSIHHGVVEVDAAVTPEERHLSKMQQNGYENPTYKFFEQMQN
Sequence of Beta-secretase 1 (P56817 whole entry): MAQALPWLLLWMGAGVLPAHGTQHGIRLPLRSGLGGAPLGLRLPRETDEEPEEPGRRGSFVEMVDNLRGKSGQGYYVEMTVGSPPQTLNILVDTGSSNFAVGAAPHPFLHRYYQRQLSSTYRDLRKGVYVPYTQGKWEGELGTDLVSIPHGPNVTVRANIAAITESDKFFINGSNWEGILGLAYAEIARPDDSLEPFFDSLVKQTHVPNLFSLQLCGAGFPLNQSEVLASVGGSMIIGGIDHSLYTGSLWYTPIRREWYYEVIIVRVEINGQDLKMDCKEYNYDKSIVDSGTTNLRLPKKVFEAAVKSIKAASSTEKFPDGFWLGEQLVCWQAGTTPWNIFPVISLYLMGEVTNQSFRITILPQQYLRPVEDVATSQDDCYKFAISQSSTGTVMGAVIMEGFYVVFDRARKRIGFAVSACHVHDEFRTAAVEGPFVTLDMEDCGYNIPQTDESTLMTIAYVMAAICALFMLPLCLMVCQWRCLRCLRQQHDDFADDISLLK

On Beta-secretase 1, `CC(C)=CCC/C(C)=C/CC/C(C)=C/Cc1c(O)cc(C)cc1O` [GRIFOLIN] came in with an IC50 of 6.1 µM.

Take `COC(=O)c1c(C)cc(O)c(C/C=C(\C)CCCC2=C/C(=C\C(C)(C)O)OC2=O)c1O`: the IC50 is 10.9 µM at Beta-secretase 1 and 40.7 µM in experiment [1].

`CC(C)=CCC/C(C)=C/CC/C(C)=C/Cc1c(O)cc(C)c(C(=O)O)c1O` [GRIFOLIC ACID]: the IC50 at Beta-secretase 1 is 1.4 µM.

As to `C/C(=C\Cc1c(O)cc(C)c(C(=O)O)c1O)CCCC1=C/C(=C\C(C)(C)O)OC1=O`, the IC50 stood at 10.5 µM against Beta-secretase 1 and 51.4 µM in experiment [1].

Regarding `COC(=O)c1c(C)c(C/C=C(\C)CC/C=C(\C)CCC=C(C)C)c(OC)c(O)c1O`, the IC50 against Beta-secretase 1 is over 100 µM; in experiment [1], 50.3 µM.

For the compound `COc1c(O)c(O)c(C(=O)O)c(C)c1C/C=C(\C)CC/C=C(\C)CCC=C(C)C`, the IC50 at Beta-secretase 1 worked out at 1.6 µM; in experiment [1] it was 6.6 µM.

For `C/C(=C\Cc1c(O)cc(C)c(C(=O)O)c1O)CC/C=C(\C)CC[C@H](O)C(C)(C)O`, the IC50 amounted to 34.4 µM against Beta-secretase 1 and 53.3 µM in experiment [1].
